Values quoted from earlier work as cited in US9034614B2, “Method of preparing alkyl butyrate from fermented liquid using microorganisms” (priority 2010, dated 2015).
In brackets after ≈: the same amount, converted by molar mass. Read-outs that look alike come from different tables or passages of the source.

## CCO [Ethanol, reference compound]
Stated in words
  Solubility in water: Miscible

## CCCCOC(=O)CCC [Butyl butyrate]
Stated in words
  Solubility in water: Insoluble

## CCCC(=O)OCC [Ethyl butyrate]
  Solubility in water: 4900 µg/mL (≈ 42.2 mM)
